Assay results published in patent US6706267B1, “Glucosamine and egg for reducing inflammation” (Arkion Life Sciences LLC, priority 1999, dated 2004).
Marks after values point to notes of the source that are not given here.

What was measured:
Assay type in all cases: in vivo
[1] = tested on: plasma fibrinogen; assay: Rat established adjuvant arthritis model: plasma fibrinogen levels
Description: (§1) To assess the synergistic antiarthritic effect of Glucosamine hydrochloride and the DCV hyperimmune egg in the established rat adjuvant arthritis, a chronic animal model of inflammation.

[2] = tested on: established rat adjuvant arthritis; assay: Rat adjuvant arthritis model: histomorphologic observations, tibiotarsal joint; set-up: scale not given here; conditions: for Ankylosis (score) / Erosion, Cartliage (score) / Hyperostosis (score) / Inflammation, periarticular (score) / Osteolysis (score) / Pannus, Cartliage (score): Tibiotarsal Joint (H&E); for Erosion, Cartilage (score): Tibiotarsal Joint (PAS)
Description: as §1

[3] = tested on: established rat adjuvant arthritis; assay: Rat established adjuvant arthritis model: paw edema; conditions: for % Chg (paw edema vs Control Adjuvant) / Day 14-Mean Paw Edema (ml ± SE) / Day 22-Mean Paw Edema (ml ± SE) / Day 30-Mean Paw Edema (ml ± SE): oral, rat
Description: as §1

Compound	% Δ from ctrl (plasma fibrinogen) ([1]; Day 23, oral) [%]	Mean Plasma Fibrinogen Levels (mg/dl ± SE) ([1]; Day 23, oral) [mg/dL]	% Δ from ctrl (plasma fibrinogen) ([1]; Day 30, oral)	Mean Plasma Fibrinogen Levels (mg/dl ± SE) ([1]; Day 30, oral) [mg/dL]	Ankylosis (score) ([2]; Day 22)	Erosion, Cartliage (score) ([2]; Day 22)	Hyperostosis (score) ([2]; Day 22)	Inflammation, periarticular (score) ([2]; Day 22)	Osteolysis (score) ([2]; Day 22)	Pannus, Cartliage (score) ([2]; Day 22)	Ankylosis (score) ([2]; Day 30)	Erosion, Cartliage (score) ([2]; Day 30)	Hyperostosis (score) ([2]; Day 30)	Inflammation, periarticular (score) ([2]; Day 30)	Osteolysis (score) ([2]; Day 30)	Pannus, Cartliage (score) ([2]; Day 30)	Erosion, Cartilage (score) ([2]; Day 22)	Erosion, Cartilage (score) ([2]; Day 30)	% Chg (paw edema vs Control Adjuvant) ([3]; Day 14) [%]	Day 14-Mean Paw Edema (ml ± SE) ([3]; Day 14)	further results
Cl.N[C@H]1C(O)O[C@H](CO)[C@@H](O)[C@@H]1O (some centres unmarked) [GLU-250, Glucosamine hydrochloride]	−2	803 ± 39	−28%	487 ± 112	3.5	2.0	3.0	3.5	1.5	2.0	4.0	4.0	3.5	4.0	3.5	4.0	2.0	4.0	−15	1.1 ± 0.3, n = 7 ml	% Δ from ctrl (plasma fibrinogen) ([1]; Day 16, oral): +18%; Mean Plasma Fibrinogen Levels (mg/dl ± SE) ([1]; Day 16, oral): 735 ± 44 mg/dL; % Chg (paw edema vs Control Adjuvant) ([3]; Day 22): −16%; Day 22-Mean Paw Edema (ml ± SE) ([3]; Day 22): 1.6 ± 0.3, n = 7 ml; % Chg (paw edema vs Control Adjuvant) ([3]; Day 30): +48* %; Day 30-Mean Paw Edema (ml ± SE) ([3]; Day 30): 3.1 ± 0.2, n = 5 ml; effect on paw edema, in words ([3]; day 30, severe polyarthritis): ineffectiveness; effect on paw edema, in words ([3]; days 14 and 22): inhibitory effect
COc1ccc2c(c1)c(CC(=O)O)c(C)n2C(=O)c1ccc(Cl)cc1 [Indo, Indomethacin]	−28	617 ± 72	−46* %	366 ± 48	1.5/1.5	1.5	3.0	3.5/3.5	2.5	1.5	1.5/1.5	2.5	2.0	3.5/3.5	1.0	2.5	1.5	2.5	−8	1.2 ± 0.4, n = 6 ml	percent inhibition of fibrinogen levels ([1]; day 30): 46%; % Chg (paw edema vs Control Adjuvant) ([3]; Day 22): −37%; Day 22-Mean Paw Edema (ml ± SE) ([3]; Day 22): 1.2 ± 0.1, n = 6 ml; % Chg (paw edema vs Control Adjuvant) ([3]; Day 30): −86* %; Day 30-Mean Paw Edema (ml ± SE) ([3]; Day 30): 0.3 ± 0.1, n = 5 ml
